Results: PubChem BioAssay (NCI)
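Briefly, cells in 96-well plates were exposed to five compound concentrations for 48 h, and endpoints were estimated by linear interpolation. GI50 is the concentration that inhibits growth by half. At the TGI there is no net growth.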

Legend:
Assay in all cases: growth of human tumour cells (NCI), 48 h
[1] = system: NCI-H460 lung
[2] = system: MALME-3M melanoma
[3] = system: SR leukemia
[4] = system: BT-549 breast
[5] = system: CCRF-CEM leukemia
[6] = system: KM12 colon
[7] = system: SK-MEL-5 melanoma
[8] = system: RPMI-8226 leukemia
[9] = system: TK-10 renal
[10] = system: SK-MEL-28 melanoma
[11] = system: PC-3 prostate
[12] = system: NCI/ADR-RES ovarian
[13] = system: HCC-2998 colon
[14] = system: HCT-15 colon
[15] = system: HL-60(TB) leukemia
[16] = system: HOP-92 NSCLC
[17] = system: UACC-62 melanoma
[18] = system: COLO 205 colon
[19] = system: A549 NSCLC
[20] = system: 786-0 renal
[21] = system: LOX IMVI melanoma
[22] = system: OVCAR-5 ovarian
[23] = system: SW-620 colon
[24] = system: SNB-75 CNS
[25] = system: UACC-257 melanoma
[26] = system: IGROV1 ovarian
[27] = system: HT29 colon
[28] = system: ACHN renal
[29] = system: SK-MEL-2 melanoma
[30] = system: SNB-19 CNS
[31] = system: K-562 leukemia
[32] = system: NCI-H226 lung
[33] = system: EKVX NSCLC
[34] = system: MDA-MB-435
[35] = system: MDA-MB-231 breast
[36] = system: DU-145 prostate
[37] = system: HCT-116 colon
[38] = system: SF-539 CNS
[39] = system: CAKI-1 renal
[40] = system: T-47D breast
[41] = system: A498 renal
[42] = system: NCI-H23 lung
[43] = system: HOP-62 NSCLC
[44] = system: SF-295 CNS
[45] = system: OVCAR-8 ovarian
[46] = system: SK-OV-3 ovarian
[47] = system: NCI-H522 lung
[48] = system: M14 melanoma
[49] = system: U251 CNS
[50] = system: SF-268 CNS
[51] = system: UO-31 renal
[52] = system: SN12C renal
[53] = system: OVCAR-4 ovarian
[54] = system: MCF7 breast
[55] = system: RXF 393 renal
[56] = system: HS 578T breast
[57] = system: MOLT-4 leukemia

CN(C)CCNC(=O)c1ccc(-c2nc3ccc4[nH]ncc4c3c3c2COCC3)cc1
GI50 [1]: 2200 nM
TGI [1]: 5.46 µM
GI50 [2]: 786 nM
TGI [2]: 2690 nM
GI50 [3]: 301 nM
TGI [3]: 2250 nM
GI50 [4]: 624 nM
TGI [4]: 2370 nM
GI50 [5]: 374 nM
TGI [5]: 50.4 µM
GI50 [6]: 955 nM
TGI [6]: 5.26 µM
GI50 [7]: 2270 nM
TGI [7]: 6.21 µM
GI50 [8]: 2170 nM
TGI [8]: 7.31 µM
GI50 [9]: 1450 nM
TGI [9]: 7.13 µM
GI50 [10]: 1280 nM
TGI [10]: 3.94 µM
GI50 [11]: 1120 nM
TGI [11]: 8.12 µM
GI50 [12]: 24.1 µM
TGI [12]: > 100 µM
GI50 [13]: 1080 nM
TGI [13]: 3.24 µM
GI50 [14]: 10.8 µM
TGI [14]: > 100 µM
GI50 [15]: 1300 nM
TGI [15]: 4.88 µM
GI50 [16]: 1000 nM
TGI [16]: 5.86 µM
GI50 [17]: 767 nM
TGI [17]: 2570 nM
GI50 [18]: 480 nM
TGI [18]: 2050 nM
GI50 [19]: 3.18 µM
TGI [19]: > 100 µM
GI50 [20]: 2050 nM
TGI [20]: 9.43 µM
GI50 [21]: 465 nM
TGI [21]: 1850 nM
GI50 [22]: 3.01 µM
TGI [22]: 28.2 µM
GI50 [23]: 527 nM
TGI [23]: 4.88 µM
GI50 [24]: 382 nM
TGI [24]: 1460 nM
GI50 [25]: 2410 nM
TGI [25]: 8.17 µM
GI50 [26]: 1280 nM
TGI [26]: 9.2 µM
GI50 [27]: 2050 nM
TGI [27]: 6.99 µM
GI50 [28]: 2850 nM
TGI [28]: 21.7 µM
GI50 [29]: 360 nM
TGI [29]: 1120 nM
GI50 [30]: 587 nM
TGI [30]: 7.47 µM
GI50 [31]: 740 nM
TGI [31]: > 100 µM
GI50 [32]: 1240 nM
TGI [32]: 7.14 µM
GI50 [33]: 2170 nM
TGI [33]: 12.8 µM
GI50 [34]: 677 nM
TGI [34]: 2150 nM
GI50 [35]: 791 nM
TGI [35]: 5 µM
GI50 [36]: 1490 nM
TGI [36]: 8.68 µM
GI50 [37]: 367 nM
TGI [37]: 11.3 µM
GI50 [38]: 512 nM
TGI [38]: 2210 nM
GI50 [39]: 1200 nM
TGI [39]: 12.7 µM
GI50 [40]: 750 nM
TGI [40]: > 100 µM
GI50 [41]: 1190 nM
TGI [41]: 2810 nM
GI50 [42]: 1240 nM
TGI [42]: 3.31 µM
GI50 [43]: 1100 nM
TGI [43]: 4.07 µM
GI50 [44]: 3.27 µM
TGI [44]: 16 µM
GI50 [45]: 1230 nM
TGI [45]: 11.1 µM
GI50 [46]: 1060 nM
TGI [46]: 28.5 µM
GI50 [47]: 188 nM
TGI [47]: 372 nM
GI50 [48]: 1370 nM
TGI [48]: 3.27 µM
GI50 [49]: 659 nM
TGI [49]: 16.3 µM
GI50 [50]: 292 nM
TGI [50]: 1820 nM
GI50 [51]: 6.75 µM
TGI [51]: 62.4 µM
GI50 [52]: 1000 nM
TGI [52]: 5.4 µM
GI50 [53]: 1850 nM
TGI [53]: 8.91 µM
GI50 [54]: 293 nM
TGI [54]: 7.66 µM
GI50 [55]: 239 nM
TGI [55]: 1040 nM
GI50 [56]: 523 nM
TGI [56]: 3.58 µM
GI50 [57]: 604 nM
TGI [57]: 5.21 µM
